The values below come from patent US12435144B2, “Use of combination of anti-PD-1 antibody and VEGFR inhibitor in preparation of drug for treating cancers” (Suzhou Suncadia Biopharmaceuticals Co., Ltd., priority 2016, dated 2025).

Each structure is given as a SMILES string.

Data set [1] has as its system mouse colon cancer cell MC-38 (PD-L1) xenograft. As to the kind of experiment: MC38 (PD-L1) xenograft in human PD-1 transgenic C57 mice. It is filed as in vivo. The following applies: anti-PD-1 antibody 3 mg/kg ip Q2D*7, apatinib 200 mg/kg po QD*14. Here is the method: • 1. Study purposes: Human PD-1 transgenic mice were used as test animals. The effects of anti-PD-1 antibody in combination with apartinib on human PD-1 expressed in transgenic C57 mice were evaluated, and the transgenic mice bear mouse colon cancer cell MC-38 (PD-L1) xenograft transfected with PD-L1 gene. • 2. Test antibodies and compounds: The anti-PD-1 antibody was prepared according to the method disclosed in WO2015085847 in which the corresponding code of the antibody is H005-1, and the sequences of the heavy and light chain are shown in SEQ ID NO: 7 and SEQ ID NO: 8 in the present invention. Lot number: P1512, 200 mg/vial, formulated into 20 mg/ml before use. Apatinib mesylate was prepared according to the method disclosed in CN101676267A, lot number: 668160401; molecular weight: 493.58; purity: 99.60%. • 3. Experimental animals: Human PD-1 transgenic C57 mice, specific-pathogen-free (SPF), with different body weights, 50% male and 50% female, were purchased from IsisInnovation Limited, UK. • 4. Drug preparation: Anti-PD-1 antibody (3 mg/kg): anti-PD-1 antibody stock solution (20 mg/ml) was adjusted to a concentration of 0.3 mg/ml with phosphate buffered saline (PBS), and the intraperitoneal injection volume was 0.2 ml/mouse. Apatinib (200 mg/kg): 400 mg apatinib was dissolved in 20 ml of 0.5% sodium carboxymethylcellulose (NaCMC), adjusted to 20 mg/ml, and was administered in 0.2 ml per mouse by gavage. […] The specific drug administration regimen is shown in Table 1. • 5.4 Determination of volume of xenograft and body weight of mice: Tumor volume and body weight were measured twice a week and data were recorded. • 5.5 Statistics: Excel 2003 statistical software was used: the mean was calculated by avg; the SD value was calculated by STDEV; the SEM value was calculated by STDEV/SQRT; the P value indicating the difference between groups is calculated by TTEST. […]
(Xenograft models place foreign cells or tissue in a host animal.)

For data set [2], the system named is metastatic gastric/gastroesophageal junction cancer. As to conditions: cited from earlier work.
The target of another data set is VEGFR-2 (Homo sapiens, UniProt P35968). The following applies: little or no inhibition on other kinases; cited from earlier work.
[3] abbreviates: apatinib alone compared with placebo.

VEGFR-2, sequence (P35968 20-1356, species assumed): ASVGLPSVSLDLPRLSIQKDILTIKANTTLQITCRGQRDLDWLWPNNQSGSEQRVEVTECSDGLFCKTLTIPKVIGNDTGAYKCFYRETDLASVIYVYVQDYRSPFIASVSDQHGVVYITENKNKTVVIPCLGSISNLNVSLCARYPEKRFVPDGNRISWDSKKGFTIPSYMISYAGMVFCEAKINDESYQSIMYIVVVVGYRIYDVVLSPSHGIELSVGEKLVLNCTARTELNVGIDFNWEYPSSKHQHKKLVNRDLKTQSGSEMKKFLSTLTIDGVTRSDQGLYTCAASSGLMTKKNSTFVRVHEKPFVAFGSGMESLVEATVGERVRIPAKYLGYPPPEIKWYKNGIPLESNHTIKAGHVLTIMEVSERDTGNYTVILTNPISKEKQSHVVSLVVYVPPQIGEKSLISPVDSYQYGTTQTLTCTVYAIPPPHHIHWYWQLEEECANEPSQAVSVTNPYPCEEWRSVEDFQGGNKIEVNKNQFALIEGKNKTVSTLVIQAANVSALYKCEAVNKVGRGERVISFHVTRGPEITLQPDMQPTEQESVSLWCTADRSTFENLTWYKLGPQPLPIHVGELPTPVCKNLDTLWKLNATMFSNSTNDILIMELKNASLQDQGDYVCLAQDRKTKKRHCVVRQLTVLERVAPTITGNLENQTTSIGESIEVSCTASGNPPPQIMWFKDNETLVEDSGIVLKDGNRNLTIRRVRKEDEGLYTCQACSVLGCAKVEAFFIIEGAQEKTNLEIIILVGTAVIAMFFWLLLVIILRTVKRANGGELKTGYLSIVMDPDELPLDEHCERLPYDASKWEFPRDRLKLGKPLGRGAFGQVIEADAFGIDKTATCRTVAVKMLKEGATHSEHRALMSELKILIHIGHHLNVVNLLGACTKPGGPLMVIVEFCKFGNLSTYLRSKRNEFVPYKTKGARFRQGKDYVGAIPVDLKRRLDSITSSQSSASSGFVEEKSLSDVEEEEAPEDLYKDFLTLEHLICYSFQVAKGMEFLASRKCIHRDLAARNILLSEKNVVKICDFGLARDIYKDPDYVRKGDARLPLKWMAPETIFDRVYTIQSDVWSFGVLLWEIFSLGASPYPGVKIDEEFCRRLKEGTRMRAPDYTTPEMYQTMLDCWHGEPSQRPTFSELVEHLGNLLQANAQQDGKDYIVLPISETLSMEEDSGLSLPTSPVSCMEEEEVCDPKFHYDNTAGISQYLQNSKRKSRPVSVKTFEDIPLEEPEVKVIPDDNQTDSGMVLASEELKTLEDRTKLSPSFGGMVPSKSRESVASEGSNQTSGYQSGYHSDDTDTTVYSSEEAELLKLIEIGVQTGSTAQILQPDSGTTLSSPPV

Turning to `N#CC1(c2ccc(NC(=O)c3cccnc3NCc3ccncc3)cc2)CCCC1` [apatinib, reference compound], the “Relative tumor volume D21” value in data set [1] (RTV=VT/V0, day 21) is given as 9.27. Besides, in data set [1] (day 21, vs HIgG control), the “% Tumor inhibition rate D21” value came out at 25.67%. In data set [1] (day 21 after initial administration, 8 mice/group), the “Mean tumor volume (mm^3) D21” value was determined as 1263.86 mm^3. Moreover, in data set [2] (setting [3]), the “prolongation of median overall survival” value is given as 1.8 months and the “prolongation of median progression-free survival” value is given as 0.8 months. Besides, the adverse events entry in data set [2] (apatinib alone) is on record as “controllable”. Moreover, on VEGFR-2, the “selectivity for VEGFR-2 over other kinases” value is “highly selective for VEGFR-2”.
